Measured values as given in PMC3537848 (Cancer research, 2012).
Numbering of substitutions follows the chain as printed.

Legend:
[1] = biological target: T1, Retinoid X receptor-α (RXRα) (Homo sapiens, UniProt P19793); assay: Gal4-RXRα-LBD luciferase reporter in CV-1 cells; assay type: cell-based
T1 sequence (P19793 198-462): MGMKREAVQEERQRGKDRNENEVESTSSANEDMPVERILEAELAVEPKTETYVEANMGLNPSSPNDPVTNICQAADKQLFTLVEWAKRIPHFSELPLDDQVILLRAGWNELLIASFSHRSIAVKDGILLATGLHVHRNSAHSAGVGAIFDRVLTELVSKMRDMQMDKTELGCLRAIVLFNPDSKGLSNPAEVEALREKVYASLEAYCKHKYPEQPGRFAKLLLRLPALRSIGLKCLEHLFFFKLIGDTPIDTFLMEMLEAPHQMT

[2] = biological target: T2, Retinoid X receptor-α (RXRα) (Homo sapiens, UniProt P19793, R316E); assay: Gal4 luciferase reporter in CV-1 cells; assay type: cell-based
T2 sequence (P19793 198-462 R316E): T1 sequence (P19793 198-462) with R119E

[3] = biological target: T3, Retinoid X receptor-α (RXRα) (Homo sapiens, UniProt P19793); assay: radioligand competition with [3H]-9-cis-RA; assay type: binding
T3 sequence (P19793 223-462 limits assumed): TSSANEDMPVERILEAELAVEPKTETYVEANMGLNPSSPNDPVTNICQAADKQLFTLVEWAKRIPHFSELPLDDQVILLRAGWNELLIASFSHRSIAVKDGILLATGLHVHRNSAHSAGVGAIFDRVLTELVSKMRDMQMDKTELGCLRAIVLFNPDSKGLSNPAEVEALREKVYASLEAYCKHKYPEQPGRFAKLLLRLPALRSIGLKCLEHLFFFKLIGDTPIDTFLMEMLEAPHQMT

[4] = biological target: T2, Retinoid X receptor-α (RXRα); assay: Gal4 luciferase reporter in CV-1 cells, antagonism of CD3254; assay type: cell-based

SMILES | Gal4-RXRα-LBD luciferase reporter in CV-1 cells (agonist) [1] | Gal4 luciferase reporter in CV-1 cells (agonist) [2] | IC50 [3] | Gal4 luciferase reporter in CV-1 cells, antagonism of CD3254 [4]
Cc1cc2c(cc1-c1cc(/C=C/C(=O)O)ccc1O)C(C)(C)CCC2(C)C [CD3254] | CD3254 strongly induced Gal4-RXRα/LBD activity, which was comparable to that induced by 9-cis-RA | CD3254 could still activate the RXRα/R316E mutant | – | –
CC(C)=CCC/C(C)=C/Cc1c(O)c(O)cc2c(=O)c3c(O)c(CC=C(C)C)c(O)cc3oc12 [CF31, 1,3,6,7-tetrahydroxy-2-(3-methyl-2-butenyl)-5-(3,7-dimethyl-2,6-octadienyl)xanthone] | – | – | 9.6 µM | CD3254-induced reporter activity was potently inhibited by CF31 in a dose dependent manner (Fig. 2C)
